The record followed here is the OligoGym collection.

Several values for one entry are separate records, joined by “and”; a condition that tells them apart may be missing. Equal entries are not always repeated. After the bases stand the sugars from the 5' end (letter, count) and the backbone: PS all phosphorothioate, else s phosphorothioate and o phosphodiester by linkage. Methylation of C is not given here. e = 2'-O-(2-methoxyethyl) (MOE); k = constrained ethyl (cEt); d = 2'-deoxy (DNA)

The target in this data set is IRF4. The conditions noted are these: ASO.

“GTTGTAAATGAGTCGG (sugars k2 d9 e3 k2, PS)”: the target mRNA inhibition is 6% (H929, 0.00067 µM); 21% (H929, 0.002 µM); 45% (H929, 0.00667 µM); 57% (H929, 0.02 µM); 13% (H929, 0.04 µM); 50% and 44% (KMS11, 0.2 µM). Moreover, the target mRNA inhibition reads like this: (MM.1R, 0.074 µM) 26%; (MM.1R, 0.222 µM) 53%; (MM.1R, 0.666 µM) 76%; (MM.1R, 1 µM) 82%; (MM.1R, 2 µM) 93%.

As to GTTACTCACGAGCACC (sugars k3 d10 k3, PS), under “MM.1R, 1 µM”, the target mRNA inhibition is -17%.

In the case of CCCATTTAATCTGTCT (sugars k3 d10 k3, PS), the target mRNA inhibition (SK-MEL-28, 4 µM) was 33%.

With GAATAAACACCCCTTC (sugars k3 d10 k3, PS), for the setting “SK-MEL-28, 4 µM”, the target mRNA inhibition was 44%.

Turning to AGCTGAGGGCAGCGGT (sugars k3 d10 k3, PS), the target mRNA inhibition (SK-MEL-28, 4 µM) was -7%.

Regarding GCCACTGGCGGAGCTT (sugars k3 d10 k3, PS), the target mRNA inhibition (SK-MEL-28, 4 µM) worked out at 23%.

TTGTGAAGCATCCTTT (sugars k3 d10 k3, PS): the target mRNA inhibition (SK-MEL-28, 4 µM) came to 63%.

Take ATCAGTCTCAAAAACG (sugars k3 d10 k3, PS): the target mRNA inhibition (SK-MEL-28, 4 µM) came out at 41%.

As to AATGAACCCTAAGTTT (sugars k3 d10 k3, PS), the target mRNA inhibition (SK-MEL-28, 4 µM) came to 3%.

Take GAACACTTTGAGGTGA (sugars k3 d10 k3, PS): the target mRNA inhibition (SK-MEL-28, 4 µM) is 14%.

For GGGCCCCGTGAAACAG (sugars k3 d10 k3, PS), under “SK-MEL-28, 4 µM”, the target mRNA inhibition amounted to 33%.

In the case of TTAACCAATCCCAACA (sugars k3 d10 k3, PS), under “SK-MEL-28, 4 µM”, the target mRNA inhibition was determined as 30%.

In the case of GCACACGCAGCCTCTA (sugars k3 d10 k3, PS), the target mRNA inhibition (SK-MEL-28, 4 µM) came to 5%.

As to “TAGTATGAGAAACGGC (sugars kkdddddddddkdkdk, PS)”, the target mRNA inhibition (MM.1R, 1 µM) stood at 39%.

Consider “CAGTTGTAAATGAGTC (sugars kddddddddddkekek, PS)”, for which the target mRNA inhibition was 16% (H929, 0.00067 µM); 25% (H929, 0.002 µM); 52% (H929, 0.00667 µM); 68% (H929, 0.02 µM); 38% (H929, 0.04 µM); 77% and 89% (KMS11, 0.2 µM). Besides, the target mRNA inhibition reads like this: (MM.1R, 0.074 µM) 18%; (MM.1R, 0.222 µM) 44%; (MM.1R, 0.666 µM) 63%; (MM.1R, 1 µM) 65%; (MM.1R, 2 µM) 85%.

Turning to GGCACATGAGAAATCA (sugars k3 d10 k3, PS), the target mRNA inhibition (SK-MEL-28, 4 µM) was determined as 33%.

As to GTGTCTAAAGTCCCAT (sugars k3 d10 k3, PS), the target mRNA inhibition (MM.1R, 1 µM) was 18% and 28%.

Regarding GGAACTCCCGAGGGCA (sugars k3 d10 k3, PS), the target mRNA inhibition (MM.1R, 1 µM) amounted to 13%.

For TTTGAAGCAACACGGG (sugars k3 d10 k3, PS), the target mRNA inhibition (SK-MEL-28, 4 µM) is 47%.

For the sequence ACTGGATATGTGGTGT (sugars k3 d10 k3, PS), the target mRNA inhibition (MM.1R, 1 µM) came to 10%.

In the case of CGTGAGAATGTTGGCT (sugars k3 d10 k3, PS), where the note is “SK-MEL-28, 4 µM”, the target mRNA inhibition was found to be 49%.

As to CCACAGAGGACTTCGG (sugars k3 d10 k3, PS), the target mRNA inhibition (SK-MEL-28, 4 µM) is 27%.

Turning to ACACATTAAAGGGTAA (sugars k3 d10 k3, PS), the target mRNA inhibition (SK-MEL-28, 4 µM) was 11%.

Regarding TCAAGTAAAGTGATCA (sugars k3 d10 k3, PS), the target mRNA inhibition (SK-MEL-28, 4 µM) is 48%.

Take AACGGAAGTTTACACT (sugars k3 d10 k3, PS): the target mRNA inhibition (SK-MEL-28, 4 µM) is 59%.

Regarding GGTCAGAATCTTGAAA (sugars k3 d10 k3, PS), the target mRNA inhibition (SK-MEL-28, 4 µM) is 9%.

“GGCACATCAATGTTTT (sugars kdddddddddkekeke, PS)”: for the setting “MM.1R, 1 µM”, the target mRNA inhibition is 9% and 6%.

TTGAATAGAGGAATGG (sugars k3 d10 k3, PS): the target mRNA inhibition (SK-MEL-28, 4 µM) was determined as 42%.

On to AAACGCAGAGCCAGTA (sugars k3 d10 k3, PS), for which the target mRNA inhibition (SK-MEL-28, 4 µM) is 37%.

In the case of ATTACTGCTTGAGGTT (sugars k3 d10 k3, PS), the target mRNA inhibition (SK-MEL-28, 4 µM) was found to be 62%.

As to CCACACCAGGAAACCG (sugars k3 d10 k3, PS), under “SK-MEL-28, 4 µM”, the target mRNA inhibition is 14%.

On to GGACATTGGTACGGGA (sugars k3 d10 k3, PS), for which the target mRNA inhibition (SK-MEL-28, 4 µM) was found to be 50%.

On to GGCACAATTCTCTGAG (sugars k3 d10 k3, PS), for which the target mRNA inhibition (SK-MEL-28, 4 µM) came to 43%.

As for ACCACGCCCCTCTCCA (sugars k3 d10 k3, PS), the target mRNA inhibition (SK-MEL-28, 4 µM) worked out at 9%.

Turning to “CTTGATAAAGGCTGAA (sugars kdddddddddkekeke, PS)”, under “MM.1R, 1 µM”, the target mRNA inhibition came to 5%.

On to GGGCATGTGACTGGAG (sugars k3 d10 k3, PS), for which, under “SK-MEL-28, 4 µM”, the target mRNA inhibition amounted to 50%.

Turning to AGCATAAAAGGTTCCT (sugars k3 d10 k3, PS), the target mRNA inhibition (SK-MEL-28, 4 µM) amounted to 45%.

As for CGCACTCCGGGCACCC (sugars k3 d10 k3, PS), the target mRNA inhibition (MM.1R, 1 µM) turned out to be 11%.

As to “TGATAGCTGAGCTGAT (sugars kddddddddddkekek, PS)”, the target mRNA inhibition (MM.1R, 1 µM) is 22%.

For CACTAAAGACTATTAG (sugars k3 d10 k3, PS), the target mRNA inhibition (SK-MEL-28, 4 µM) came to 5%.

Turning to GCGCAAGTCTACAGCC (sugars k3 d10 k3, PS), under “SK-MEL-28, 4 µM”, the target mRNA inhibition is -20%.

On to “TCAGTTTGTGAAGCAT (sugars kkdddddddddkekek, PS)”, for which the target mRNA inhibition is, setting by setting: (MM.1R, 0.074 µM) 9%; (MM.1R, 0.222 µM) 27%; (MM.1R, 0.666 µM) 46%; (MM.1R, 1 µM) 58%; (MM.1R, 2 µM) 73%.

In the case of GCCATGGCTGATCGCT (sugars k3 d10 k3, PS), the target mRNA inhibition (SK-MEL-28, 4 µM) is 30%.

As to “GACAGTGACTTGCATC (sugars kdddddddddkekeke, PS)”, the target mRNA inhibition (MM.1R, 1 µM) amounted to 0%.

With TGAGACTACACCTACA (sugars k3 d10 k3, PS), the target mRNA inhibition (SK-MEL-28, 4 µM) came out at 19%.

TTCCGGGTGTGGCTGA (sugars k3 d10 k3, PS): under “MM.1R, 1 µM”, the target mRNA inhibition stood at 25%.

For “AGTGATGTCAGGTTTT (sugars k3 d9 k3 e1, PS)”, the target mRNA inhibition came to 13% (MM.1R, 0.074 µM); 40% (MM.1R, 0.222 µM); 64% (MM.1R, 0.666 µM); 65% (MM.1R, 1 µM); 86% (MM.1R, 2 µM).

AACTGCAGCACCGTGG (sugars k3 d10 k3, PS): the target mRNA inhibition (SK-MEL-28, 4 µM) is 45%.

Regarding TCCCGAGGCCGGAGAC (sugars k3 d10 k3, PS), the target mRNA inhibition (SK-MEL-28, 4 µM) was -27%.

In the case of TTCCAGCAAGACCTAA (sugars k3 d10 k3, PS), the target mRNA inhibition (SK-MEL-28, 4 µM) came out at 27%.

Take TAACTAAAACTGCATC (sugars k3 d10 k3, PS): the target mRNA inhibition (SK-MEL-28, 4 µM) stood at 10%.

On to GCTGCCACTGGTAACT (sugars k3 d10 k3, PS), for which the target mRNA inhibition (SK-MEL-28, 4 µM) was determined as 26%.

Turning to TCTCACGCAGTGCACC (sugars k3 d10 k3, PS), the target mRNA inhibition (SK-MEL-28, 4 µM) was found to be 44%.

As for GCATGCAAGCCCGTTA (sugars k3 d10 k3, PS), the target mRNA inhibition (SK-MEL-28, 4 µM) was -1%.

Consider TTGTCATGGTGTAGGG (sugars k3 d10 k3, PS), for which the target mRNA inhibition (SK-MEL-28, 4 µM) was found to be 41%.

On to CTCTAGTCAGTGTCAA (sugars k3 d10 k3, PS), for which the target mRNA inhibition (SK-MEL-28, 4 µM) worked out at 59%.

With “TGCTTGAGGTTTTCCT (sugars kkdddddddddekeke, PS)”, the target mRNA inhibition (MM.1R, 1 µM) was 45%.

On to CTCCACGCGCGGAGGA (sugars k3 d10 k3, PS), for which the target mRNA inhibition (SK-MEL-28, 4 µM) was -1%.

On to CTGGGTTTTCTGTAGG (sugars k3 d10 k3, PS), for which the target mRNA inhibition (SK-MEL-28, 4 µM) came to 48%.

As to CTGAAGACAATGTTGT (sugars k3 d10 k3, PS), the target mRNA inhibition (SK-MEL-28, 4 µM) turned out to be 55%.

Take AGGAAGCCGTTCCTTT (sugars k3 d10 k3, PS): under “SK-MEL-28, 4 µM”, the target mRNA inhibition came to 42%.

For TAAACAGTGCCCAAGC (sugars k3 d10 k3, PS), where the note is “SK-MEL-28, 4 µM”, the target mRNA inhibition came out at 41%.

Consider “TACTGCTTGAGGTTTT (sugars k3 d9 k3 e1, PS)”, for which the target mRNA inhibition (MM.1R, 1 µM) worked out at 13%.

Regarding “GATGTGATAGCTGAGC (sugars kkdddddddddekeke, PS)”, the target mRNA inhibition (MM.1R, 1 µM) is 53%.

Regarding “TACTGCTTGAGGTTTT (sugars kkkddddddddkekek, PS)”, for the setting “MM.1R, 1 µM”, the target mRNA inhibition was -8%.

In the case of AAACGAGAACGCACGG (sugars k3 d10 k3, PS), the target mRNA inhibition (MM.1R, 1 µM) came out at 9%.

On to “GCATTTTATCATCCGA (sugars kkdddddddddkekek, PS)”, for which, where the note is “MM.1R, 1 µM”, the target mRNA inhibition came to 48%.

Consider CACTGGCATTGAGACG (sugars k3 d10 k3, PS), for which the target mRNA inhibition (SK-MEL-28, 4 µM) was 69% and 76%.

For the sequence CAACCATTTTCACAAG (sugars k3 d10 k3, PS), the target mRNA inhibition (SK-MEL-28, 4 µM) stood at 17%.

For GTGCAAGCCTCATTCA (sugars k3 d10 k3, PS), where the note is “MM.1R, 1 µM”, the target mRNA inhibition turned out to be 19%.

Regarding GGCCTCCCCAAGGCTA (sugars k3 d10 k3, PS), where the note is “SK-MEL-28, 4 µM”, the target mRNA inhibition is 18%.

On to GCATTTTATCATCCGA (sugars k3 d10 k3, PS), for which, where the note is “SK-MEL-28, 4 µM”, the target mRNA inhibition turned out to be 63%.

Take “CTATAGTGTTCCAGGA (sugars k2 d9 e3 k2, PS)”: the target mRNA inhibition (MM.1R, 1 µM) amounted to 34%.

Consider ATGTTGCATAGGCATC (sugars k3 d10 k3, PS), for which, for the setting “MM.1R, 1 µM”, the target mRNA inhibition was found to be 10%.

As for CCGGAAGAAGGCACCT (sugars k3 d10 k3, PS), the target mRNA inhibition (SK-MEL-28, 4 µM) worked out at 17%.

Regarding AGGAAGCACTGGCATT (sugars k3 d10 k3, PS), the target mRNA inhibition (SK-MEL-28, 4 µM) was 59%.

Regarding AGATAGTTAAGTACTT (sugars k3 d10 k3, PS), the target mRNA inhibition (SK-MEL-28, 4 µM) came out at 11%.

As to GGAAAGAGCTTTGGTG (sugars k3 d10 k3, PS), the target mRNA inhibition (SK-MEL-28, 4 µM) came to 12%.

Regarding CCAGAAGTACGAGCAC (sugars k3 d10 k3, PS), the target mRNA inhibition (MM.1R, 1 µM) was -3%.

TAGTTAAGTACTTGGA (sugars k3 d10 k3, PS): the target mRNA inhibition (SK-MEL-28, 4 µM) was found to be 56%.

As for “CCTCAGTTTGTGAAGC (sugars kkkdddddddddkeke, PS)”, the target mRNA inhibition (MM.1R, 1 µM) is 8%.

For the sequence ATGGTATTTTTCCGTT (sugars k3 d10 k3, PS), where the note is “MM.1R, 1 µM”, the target mRNA inhibition is 32% and 43%.
